Reference: patent US20060241178A1, “Compositions and methods for treating lung cancer” (priority 2002, published 2006)
Read-outs that look alike come from different tables or passages of the source. Marks after values point to notes of the source that are not given here.

Legend:
[1] = tested on: NNK/B(a)P-induced lung adenomas and adenocarcinomas; conditions: for Adenocarcinoma Incidence (%) / Adenocarcinoma Multiplicity mean ± SD / Adenoma Incidence (%) / Adenoma Multiplicity mean ± SD: preliminary
Description: The test compounds were given in the diet on week 21 after beginning of a weekly dose of a mixture of NNK/B(a)P: 3 μmol each (621 μg NNK and 756 μg B(a)P) in 0.1 ml cottonseed oil for eight weeks (a total of 8 doses) (groups 1 to 10); only vehicle (cottonseed oil) for groups 11 to 15. Animals were then given experimental diet for 20 weeks until week 40. Four mice in groups 1, 2, 4, 6, 8, and 10 (see Table 1) were sacrificed on weeks 20, 38, and 40. The bioassay was terminated on week 52. If sufficient numbers of tumors were developed in mice killed on week 40, the bioassay was terminated at week 40. Tumors (adenomas and carcinomas) were quantified by multiplicity and incidence. At sacrifice, livers and lungs were harvested and the tissues rinsed in autoclaved PBS, stored in labeled foil, and snap frozen in liquid nitrogen. These tissues both tumorous and non-tumorous were processed by histology for biomarker studies (TUNEL, PCNA,p53, […] kinases, etc.). Lungs were examined by histology at termination (52 week or 40 week) for adenomas and carcinomas).
In this study, the potential protective effects of ITCs and ITC-NACs against progression of lung adenomas to malignant tumors were investigated. Lung tumors were induced in A/J mice with 3 μmol B(a)P plus 3 μmol NNK (gavage once/wk, 8 wks); mice were maintained on AIN-76A semi-purified diets. […] Diets containing PEITC (phenethyl ITC) or SFN (sulforaphane), each at 3 mmol/kg and 1.5 mmol/kg diet; PEITC-NAC or SFN-NAC at 8 mmol/kg and 4 mmol/kg diet; and NAC at 8 mmol/kg diet were then provided to groups of 28 mice (high dose) or 20 mice (low dose) during weeks 20 to 40 after initiation. Four mice in each high dose treatment group were killed during weeks 28 and 40 to monitor tumor incidence and progression; lung tissues were used for molecular studies. Remaining mice were killed at 40 weeks for histopathological examination. […] To assess molecular events occurring during the treatments, lung RNA of mice treated with B(a)P+NNK/control diet and B(a)P+NNK/PEITC-NAC high dose diet was examined using a Mouse Cancer Pathway Finder Gene Array.

[2] = tested on: B(a)P-induced lung adenoma; assay: Tumor bioassay: B(a)P-induced lung tumorigenesis, ITC-NAC conjugates in diet during post-initiation phase
Description: The ITC conjugates were incorporated (15 μmol/g diet) into AIN-76A diets (5% corn oil) by mixing with dextrose prior to diet preparation. The conjugates, 9.36 g BITC-NAC (15 mmol) or 9.79 g PEITC-NAC (15 mmol), were dissolved in 50 ml ethyl acetate, and then mixed with 200 g dextrose to ensure even coating of dextrose particles. After mixing with dextrose, the solvent was removed using a rotary evaporator and further dried using a vacuum pump (2-3 h). Diets were prepared in 1-2 kg batches, and were stored at 4° C. in a container purged with nitrogen. […] Stability was determined by extraction of 0.5 g portions of the diet with 2.5 ml methanol (2×). The methanol extracts were combined and a 1 ml aliquot was filtered using a 0.47 μm syringe filter. A 10 μl sample was then analyzed on HPLC (Jiao, et al., Chem. Res. Toxicol., 9: 932-938, 1996).
Tumor Bioassay: Female strain A mice (Jackson Laboratories, Bar Harbor, Me.) of four weeks of age were housed under quarantine in polycarbonate cages (5 mice/cage) and provided modified AIN 76A diet (5% corn oil) and acidified drinking water ad libitum. The mice were maintained on a 12 h light: 12 h dark regimen at 22±5° C. and 50±20% relative humidity. After one week, the mice were weighed, and distributed into four groups containing 30 to 35 mice on the basis of body weight. At seven weeks of age, the mice in groups 1-3 were gavaged with a single dose of 20 μmol B(a)P in 0.2 ml cottonseed oil; group 4 received the vehicle only. Two days after dosing with the carcinogen, diets containing BITC-NAC (15 μmol/g, Group 2) and PEITC-NAC (15 μmol/g, Group 3) were provided. Groups 1 (B[a]P control) and 4 (vehicle only) remained on the modified AIN-76A diet with 5% corn oil. Tap water was provided ad libitum during the course of the bioassay. Mice were observed daily; diets were replenished on the fourth day of the week, and completely replaced on the seventh day. Mice were weighed weekly for four weeks, then monthly and at termination. At 84 days after B(a)P dosing, four mice per group were killed (CO2, cervical dislocation) to harvest lung tissues for molecular and immunohistochemical studies and to quantify lung adenomas, if present. At 140 days after B(a)P, the remaining mice in each group were killed. The number of lung tumors was recorded; lobes of lungs were placed in 10% phosphate buffered formalin for histological and immunohistochemical analysis. The remaining lung lobes were snap frozen in liquid nitrogen.
Mean tumor multiplicity and body weights at each time point were compared between groups using Student's T test.

[3] = tested on: A549/TAM67 cells; assay: Apoptosis in A549/TAM67 transfectants (morphology, DNA fragmentation, annexin V, PARP Western blot); format: cell-based, human; conditions: 25 μM
[4] = tested on: c-Jun (AP-1 pathway) and Akt pathway genes; assay: Mouse Cancer Pathway Finder Gene Array on lung RNA; format: in vivo, A/J mice; conditions: PEITC-NAC high dose diet vs control diet
Text: Some mice also had developed forestomach masses. […] Findings involving other pathways will be presented.

[5] = high dose (3 or 8 mmol/kg diet)
[6] = low dose (1.5 or 4 mmol/kg diet)

In the case of `CC(=O)N[C@@H](CSC(=S)NCCc1ccccc1)C(=O)O` [PEITC-NAC, N-acetylcysteine Conjugate of phenethyl isothiocyanate], the “incidence of adenocarcinoma/squamous carcinoma” value ([1]; 8 mmol/kg diet, initiated control group 60%) is reported as 20%, the “mean numbers of lung adenomas compared with carcinogen control mice” value ([1]; at termination) is reported as “decreases were significant” and the “Adenocarcinoma Incidence (%)” value [1, 5] is reported as 5/31 (16.1%). The “Adenocarcinoma Multiplicity mean ± SD” value [1, 5] was 0.52 ± 1.50, the “Adenoma Incidence (%)” value [1, 5] was 30/31 (96.8%) and the “Adenoma Multiplicity mean ± SD” value ([1]; high dose (PEITC, SFN 3 mmol/kg diet; PEITC-NAC, SFN-NAC, NAC 8 mmol/kg diet)) was 8.19 ± 3.99. The “Adenocarcinoma Incidence (%)” value [1, 6] was 4/19 (21.05%), the “Adenocarcinoma Multiplicity mean ± SD” value [1, 6] was 0.53 ± 1.14 and the “Adenoma Incidence (%)” value [1, 6] was 17/19 (89.47%). The “Adenoma Multiplicity mean ± SD” value ([1]; low dose (PEITC, SFN 1.5 mmol/kg diet; PEITC-NAC, SFN-NAC 4 mmol/kg diet)) was 7.58 ± 3.88, the malignant tumor multiplicity ([1]; low dose groups, initiated control group 2.1) was 0.9 tumors/mouse and the “tumor multiplicity” value ([2]; 15 μmol/g diet after B(a)P, at termination, B(a)P control 6.1±3.1) was 3.4±2.7 tumors/mouse. The “Tumor Incidence (%), lung adenoma” value ([2]; 15 μmol/g diet from 2 days after 20 μmol B(a)P, 140 days) was 89%, the “Tumor multiplicity (no. of tumors/mice), lung adenoma” value ([2]; 15 μmol/g diet from 2 days after 20 μmol B(a)P, 140 days, mean ± SD) was 3.39 ± 2.71^b no. of tumors/mice and the “average body weight at termination” value ([2]; 15 μmol/g diet, controls 25.8 g and 25.7 g) was 22.8 g. For the same molecule, the tumor reduction ([2]; versus B(a)P control diet group, at termination) was 44%, the “PARP 89 kD cleavage fragment” value ([3]; 3 h) was “a defined 89 kD band” and the “cell survival (annexin V-Cy3 / 6-CFDA staining)” value ([3]; 20 h) was “nearly no cell survival”. For the same molecule, the PARP protein ([3]; 24 h) was “completely degraded”, the “cell survival (morphology, DNA fragmentation)” value ([3]; 24 h) was “most TAM67 transfectants had already died” and the “c-Jun expression (AP-1 pathway) and Akt pathway genes” value [4] was “up-regulated”.
